The values below come from patent publication US7803829B2, “Use of a kinase inhibitor for the treatment of particular resistant tumors” (Nerviano Medical Sciences S.r.l., priority 2006, dated 2010).

Numbering of substitutions follows the chain as printed.

Holding throughout (test): Indolinone probe titration (fluorescence), probe of 3.2
Format in all cases: binding
Holding throughout (conditions): Table 4

Assay [1] deals with T1, T315I ABL mutant kinase domain (Homo sapiens, UniProt P00519, T315I).
T1 construct: ABL kinase domain (corresponding to residues 229-512); GST (N, cleaved yes); PreScission cleavage site (N, cleaved yes); made in house; host or cells: High5 insect cells (baculovirus)
T1 sequence (P00519 229-512 T315I): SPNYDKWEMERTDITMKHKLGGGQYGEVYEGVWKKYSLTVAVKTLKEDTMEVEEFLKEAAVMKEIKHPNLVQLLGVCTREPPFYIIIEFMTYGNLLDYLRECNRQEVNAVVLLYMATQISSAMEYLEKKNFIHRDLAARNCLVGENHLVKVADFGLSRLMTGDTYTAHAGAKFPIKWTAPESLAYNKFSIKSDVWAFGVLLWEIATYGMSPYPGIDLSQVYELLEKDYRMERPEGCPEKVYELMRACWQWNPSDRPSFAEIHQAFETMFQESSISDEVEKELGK
How it is done: (§1) The titration experiment was performed as follows: 10 nM ABL kinase domains (wild-type or T315I mutant), indolinone concentration from 3 μM to 0, with dilution steps 1:1.5 in 50 mM TrisHCl, pH 7.5, 150 mM NaCl, 5 mM MgCl2, 1 mM MnCl2, 1 mM DTT, 1% DMSO, 3 μM NaaVO4(buffer 1).

Assay [2] addresses T2, Wild-type ABL 0P (unphosphorylated) kinase domain (Homo sapiens, UniProt P00519).
T2 construct: ABL kinase domain (corresponding to residues 229-512); GST (N, cleaved yes); PreScission cleavage site (N, cleaved yes); made in house; host or cells: High5 insect cells (baculovirus)
T2 sequence (P00519 229-512): T1 sequence (P00519 229-512 T315I) with I87T
How it is done: as §1

Assay [3] deals with T3, wild-type ABL kinase domain (Homo sapiens, UniProt P00519).
T3 construct: ABL kinase domain (corresponding to residues 229-512); GST (N, cleaved yes); PreScission cleavage site (N, cleaved yes); made in house; host or cells: High5 insect cells (baculovirus)
T3 sequence (P00519 229-512): T1 sequence (P00519 229-512 T315I) with I87T
How it is done:
as §1

Consider `CCN(CC)CCNC(=O)c1c(C)[nH]c(/C=C2\C(=O)Nc3ccc(S(=O)(=O)NC)cc32)c1-c1ccc(F)cc1F` [N-[2-(diethylamino)ethyl]-4-(2,4-difluorophenyl)-2-methyl-5-((Z)-{5-[(methylamino)sulfonyl]-2-oxo-1,2-dihydro-3H-indol-3-ylidene}methyl)-1H-pyrrole-3-carboxamide], for which the dissociation constant (Kd) (usually the concentration at which binding is half-saturated) is 0.02 ± 0.008 µM in assay [1], 0.2 ± 0.1 µM in assay [2] and 0.33 ± 0.12 µM in assay [3].
